In publication PMC11088877, “AMP-activated protein kinase can be allosterically activated by ADP but AMP remains the key activating ligand” (Biochemical Journal, 2024):
Values joined by “and” are separate entries in the source; they are usually repeats but may differ in a detail not shown here. Equal entries are not always repeated.

Experiments:
[1] = target: T1, human α2β2γ1 complex, CBS3 mutant (V276G/L277G) (Homo sapiens, UniProt P54619+P54646, L277G/V276G); assay: Allosteric activation of CBS3 mutant human α2β2γ1 AMPK complex; type: biochemical
T1 construct: made in house; host or cells: Escherichia coli
T1 sequence (P54619 whole entry V276G/L277G): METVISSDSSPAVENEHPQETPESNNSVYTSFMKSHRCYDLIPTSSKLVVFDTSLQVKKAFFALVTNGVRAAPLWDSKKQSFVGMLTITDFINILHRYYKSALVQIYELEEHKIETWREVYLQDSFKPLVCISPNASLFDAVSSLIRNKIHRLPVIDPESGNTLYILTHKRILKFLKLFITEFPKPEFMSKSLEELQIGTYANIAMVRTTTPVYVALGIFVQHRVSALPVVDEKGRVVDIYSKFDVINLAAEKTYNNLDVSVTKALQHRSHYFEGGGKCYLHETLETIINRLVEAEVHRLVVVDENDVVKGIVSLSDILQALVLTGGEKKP
T1 sequence (P54646 whole entry): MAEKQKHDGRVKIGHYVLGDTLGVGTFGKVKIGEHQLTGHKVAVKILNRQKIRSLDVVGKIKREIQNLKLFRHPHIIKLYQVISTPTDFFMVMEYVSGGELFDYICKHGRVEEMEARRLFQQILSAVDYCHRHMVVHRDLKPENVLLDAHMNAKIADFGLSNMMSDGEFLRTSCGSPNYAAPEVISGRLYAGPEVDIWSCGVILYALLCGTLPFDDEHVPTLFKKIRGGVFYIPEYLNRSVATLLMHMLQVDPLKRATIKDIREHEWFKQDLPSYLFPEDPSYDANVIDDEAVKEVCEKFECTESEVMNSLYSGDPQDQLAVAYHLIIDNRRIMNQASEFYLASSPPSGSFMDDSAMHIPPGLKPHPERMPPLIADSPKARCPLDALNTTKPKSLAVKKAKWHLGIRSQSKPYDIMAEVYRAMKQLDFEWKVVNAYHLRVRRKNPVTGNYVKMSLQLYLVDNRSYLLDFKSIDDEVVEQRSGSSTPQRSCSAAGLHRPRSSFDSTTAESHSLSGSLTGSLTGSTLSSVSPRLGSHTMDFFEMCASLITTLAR
T1 sequence (O43741 whole entry partner): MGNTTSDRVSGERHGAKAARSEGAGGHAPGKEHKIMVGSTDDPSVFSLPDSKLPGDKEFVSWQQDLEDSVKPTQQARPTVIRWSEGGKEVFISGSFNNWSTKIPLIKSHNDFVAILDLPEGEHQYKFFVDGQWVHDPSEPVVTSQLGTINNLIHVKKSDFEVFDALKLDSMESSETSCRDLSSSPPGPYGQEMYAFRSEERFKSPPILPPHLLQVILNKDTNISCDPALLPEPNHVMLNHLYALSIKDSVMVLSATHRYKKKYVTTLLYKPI
Text: To study allosteric activation with a more well-defined AMPK complex, and to study the effects of mutations in individual adenine nucleotide-binding sites on the γ subunit, we expressed a human α2β2γ1 complex in Escherichia coli and purified it utilizing the polyhistidine tag at the N-terminus of the α2 subunit. […] However, it had not been co-expressed with an N-myristoyl transferase so would not have been N-myristoylated on the β2 subunit. The complex was expressed not only with the WT γ1 sequence but also with mutations affecting hydrophobic residues previously shown to be involved in binding of the adenine moieties of nucleotides at CBS1 (L129D/V130D), CBS3 (V276G/L277G) and CBS4 (I312G). All four complexes co-purified as heterotrimeric 1:1:1 complexes as expected, and were phosphorylated and activated equally well either by CaMKK2 or the LKB1: STRADα:MO25α complex (Supplementary Figure S2). For the studies described below we phosphorylated Thr172 using a GST-tagged CaMKK2 and repurified AMPK using size exclusion chromatography and a glutathione-Sepharose column, which remove CaMKK2.
Figure 4. Allosteric activation of WT and mutant human α2β2γ1 AMPK complex by AMP and ADP at three different concentrations of ATP. The α2β2γ1 complex was phosphorylated on Thr172 prior to assay using CaMKK2. The γ1 subunit was either (A/E): WT; (B/F): a CBS1 mutant (L129D/V130D); (C/G): a CBS3 mutant (V276G/L277G); (D/H): a CBS4 mutant (I312G). Results are means of duplicate assays ± SD; error bars are not shown if they were smaller than the symbols used for mean values. Assays and curve fitting were as in Figure 1 at either 0.2 mM (left panels) or 5 mM (right panels) ATP. Best-fit values for all parameters used to generate the curves are listed in Supplementary Table S1.
Sources of antibodies were as described: pThr172 (AMPK-α: Cell Signaling Technologies, Danvers, MA, U.S.A., Cat# 2535), AMPK-α2 [22]. Rat liver AMPK was purified as described previously. Plasmid encoding human (His)6-tagged AMPK (α2β2γ1, bacterially expressed) generated as in [23], was a gift from AstraZeneca, Cambridge, U.K. The L129D/V130D (CBS1), V276G/L277G (CBS3) and I312G (CBS4) mutations in the α2β2γ1 complex were generated using the Quikchange II site-directed mutagenesis kit (Agilent Technologies) and confirmed by DNA sequencing. Human GST-tagged α2 kinase domain (1–310), LKB1:STRAD-α:MO25-α complexes, GST-tagged CaMKK2 [26], and PPM1A (PP2Cα) were produced as described. Bacterially expressed heterotrimers were activated by phosphorylation of Thr172 by GST-tagged CaMKK2 in the presence of ATP, and CaMKK2 was subsequently removed by passage through glutathione-Sepharose. Human GST-tagged α2 kinase domain was activated in a similar manner except that human (His)6-tagged LKB1:STRAD-α:MO25-α complex was used and removed after activation via passage through a His-Trap column. Recombinant human 5′-nucleotidase, CD73, Cat # 5795-EN-01, was from R&D systems (Minneapolis, MN, U.S.A.).
AMPK assays measured the transfer of radioactivity from [γ-^33P]ATP to a peptide substrate, which was separated from unreacted ATP by binding to P81 paper. This assay was described previously except that we used [γ-^33P] rather than [γ-^32P]ATP. In some assays (specified in Figure legends) the concentration of ATP was increased from 0.2 to 1 or 5 mM ATP, with MgCl2 concentrations maintained at a constant 4.8 mM excess above the concentration of ATP [19]. Where allosteric activation by AMP or ADP was being studied, we used the SAMS peptide as substrate. For all other assays the AMARA peptide was used.

[2] = system: FLAG-γ1-containing AMPK complexes; design: method as in PMID 26542978; conditions: ADP 300 µM to 3 mM; cited from earlier work

Row | Compound | Activation (maximal) ([1]; α2β2γ1 CBS3 mutant, 0.2 mM ATP) | IC50 ([1]; α2β2γ1 CBS3 mutant, 0.2 mM ATP) [mM] | Activation (maximal) ([1]; α2β2γ1 CBS3 mutant, 5.0 mM ATP) | IC50 ([1]; α2β2γ1 CBS3 mutant, 5.0 mM ATP) [mM] | stimulation of activation by LKB1 [2] [fold] | increase of EC50 relative to WT ([1]; α2β2γ1 CBS3 mutant vs WT, 5 mM ATP) | EC50 ([1]; α2β2γ1 CBS3 mutant, 0.2 mM ATP) [mM] | IC50/EC50 ([1]; α2β2γ1 CBS3 mutant, 0.2 mM ATP) | activation over basal remaining ([1]; α2β2γ1 CBS3 mutant, 0.2 mM ATP) [%] | EC50 ([1]; α2β2γ1 CBS3 mutant, 5.0 mM ATP) [mM] | IC50/EC50 ([1]; α2β2γ1 CBS3 mutant, 5.0 mM ATP)
1 | Nc1ncnc2c1ncn2[C@@H]1O[C@H](COP(=O)(O)OP(=O)(O)O)[C@@H](O)[C@H]1O [ADP] | did not cause allosteric activation and none | 0.5 | essentially abolished allosteric activation | 7.6 | < 2 |  |  |  |  |  | 
2 | Nc1ncnc2c1ncn2[C@@H]1O[C@H](COP(=O)(O)O)[C@@H](O)[C@H]1O [AMP] | 1.2 (1.1-1.2) fold | 6.1 | 2.0- to 2.5 fold and 2.3 (2.1-2.7) fold | 40 |  | 10- to 20 fold | 0.0029 | 2100 | 20 | 0.37 | 110
